According to US20180094320A1, “IN VITRO DRUG METABOLISM REAGENT AND USES THEREOF” (priority 2016, published 2018):
Where two headings read alike, the source gives them in different places.

Key:
[1] = tested on: human enterocytes; assay: 7-ethoxycoumarin O-deethylation (ECOD) activity in human enterocytes; assay type: in vitro ADME; conditions: Group D permeabilized enterocytes with cofactors compared with Groups A-C (intact ± cofactors, permeabilized without cofactors)
Description: The assay was performed essentially as disclosed in Example 2, wherein the in vitro reagent comprises enterocytes and exogenous drug metabolizing enzyme co-factors (NADPH, UPGA, and PAPS), herein referred to as “cofactors”. As comparators, intact enterocytes, that were not permeabilized, were used wherein one group was incubated with cofactors and another group was incubated without cofactors, each in the presence of the xenobiotic test compound. Permeabilized enterocytes incubated without cofactors were used as a control. The test groups were: Group A—intact enterocytes incubated without cofactors; Group B—intact enterocytes incubated with cofactors; Group C—permeabilized enterocytes incubated without cofactors (control); Group D—the in vitro reagent (permeabilized enterocytes incubated with cofactors). […] Permeabilization (by freezing without cryoprotectants followed by thawing) allows maximal interaction of the intracellular enzymes with the substrate (7-ethoxycoumarin), and the addition of cofactors overcomes the dilution of intracellular cofactors due to permeabilization.

[2] = known in vivo hepatic clearance, human; cited from earlier work
[3] = biological target: T1, 2J2 (Homo sapiens, UniProt P51589); assay: Pathway-selective substrate metabolism in human enterocytes, 2J2; assay type: in vitro ADME; conditions: Intact Cryopreserved Enterocytes; 30 min, 37° C.
T1 construct: enterocytes are isolated from human intestines by collagenase digestion; endogenous in cells; host or cells: primary human enterocytes, intact or permeabilized with cofactors
T1 sequence (P51589 1-502): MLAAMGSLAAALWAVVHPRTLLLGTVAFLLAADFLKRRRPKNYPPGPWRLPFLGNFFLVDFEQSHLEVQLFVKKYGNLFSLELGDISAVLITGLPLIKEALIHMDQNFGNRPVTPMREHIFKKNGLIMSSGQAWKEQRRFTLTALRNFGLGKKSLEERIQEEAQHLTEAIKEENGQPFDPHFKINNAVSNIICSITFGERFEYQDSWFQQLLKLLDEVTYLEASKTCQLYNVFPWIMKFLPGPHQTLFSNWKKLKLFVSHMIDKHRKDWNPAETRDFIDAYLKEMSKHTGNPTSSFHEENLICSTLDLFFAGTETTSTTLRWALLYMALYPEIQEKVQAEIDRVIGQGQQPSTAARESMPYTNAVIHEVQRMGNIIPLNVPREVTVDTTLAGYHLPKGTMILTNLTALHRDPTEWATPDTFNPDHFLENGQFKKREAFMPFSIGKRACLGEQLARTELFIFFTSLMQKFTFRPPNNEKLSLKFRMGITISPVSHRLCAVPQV

[4] = tested on: HEK293 cells
[5] = tested on: permeabilized human hepatocytes
Description: The drugs evaluated were added at a concentration of 1 μM to a hepatocyte culture of 1 million cells/ml.

[6] = tested on: permeabilized human hepatocytes; assay: Cofactor-directed metabolic pathway selection of coumarin metabolism; assay type: in vitro ADME; conditions: 75 micromolar coumarin, 30 min
Description: Intact human hepatocytes allow metabolism of a drug by all hepatic pathways, selection of a specific metabolic pathway for evaluation is not easily accomplished. […] The metabolism of coumarin was used as a model for cofactor directed metabolic pathway selection. See FIG. 12 for the co-factor directed pathway selection of coumarin metabolism with the present permeabilized human hepatocytes. The exogenous drug metabolizing enzyme co-factors used were 2 mM NADPH, 2 mM NADPH+1 mM PAPS and 2 mM NADPH+5 mM […], and no cofactor addition used as a control.

In the case of `CCOc1ccc2ccc(=O)oc2c1` [7-ethoxycoumarin], the “7-ethoxycoumarin O-deethylation (ECOD) activity” value [1] is reported as “Highest activity”.
In the case of `CN(C)C/C=C/C(=O)Nc1cc2c(Nc3ccc(F)c(Cl)c3)ncnc2cc1O[C@H]1CCOC1` [Afatinib], the “Observed in vivo CIsys” value [2] is listed as 15 mL/min/kg.
In the case of `Cc1cc(=O)n(-c2ccccc2)n1C` [Antipyrine], the “Observed in vivo CIsys” value [2] is listed as 0.5 mL/min/kg.
With `COc1ccc(CCN2CCC(Nc3nc4ccccc4n3Cc3ccc(F)cc3)CC2)cc1` [Astemizole] the “Metabolic Activity, O-Demethyl Astemizole formation” value [3] was “BLQ”.
For `CC(C)NCC(O)COc1ccc(CCOCC2CC2)cc1` (stereo not drawn) [Betaxolol], the “Observed in vivo CIsys” value [2] is given as 4.8 mL/min/kg.
In the case of `NC(=O)N1c2ccccc2C=Cc2ccccc21` [Carbamazepine], the “Observed in vivo CIsys” value [2] is given as 0.4 mL/min/kg.
With `O=P1(N(CCCl)CCCl)NCCCO1` (stereo not drawn) [Cyclophosphamide] the “cytotoxicity on HEK 293 cells (cellular ATP content)” value ([4]; with permeabilized human hepatocytes (cofactor supplemented) vs boiled or no hepatocytes, 24 hours) was “enhanced”.
For `COc1ccc2c(c1)[C@]13CCCC[C@@H]1[C@H](C2)N(C)CC3` [Dextromethorphan], the “Permeabilized Hepatocytes Average (predicted clearance)” value [5] is given as 7.3 and the “Observed in vivo CIsys” value [2] is given as 8.6 mL/min/kg.
In the case of `CN1C(=O)CN=C(c2ccccc2)c2cc(Cl)ccc21` [Diazepam], the “Observed in vivo CIsys” value [2] is listed as 0.4 mL/min/kg.
For `O=C(O)Cc1ccccc1Nc1c(Cl)cccc1Cl` [Diclofenac], the “Observed in vivo CIsys” value [2] is given as 4.2 mL/min/kg.
In the case of `O=P1(NCCCl)OCCCN1CCCl` (stereo not drawn) [Ifosfamide], the “cytotoxicity on HEK 293 cells (cellular ATP content)” value [4] is reported as “enhanced”.
In the case of `O=C1Nc2ccc(Cl)cc2C(c2ccccc2Cl)=NC1O` (stereo not drawn) [Lorazepam], the “Observed in vivo CIsys” value [2] is listed as 1.1 mL/min/kg.
In the case of `O=c1ccc2ccccc2o1` [coumarin], the “Cofactor selection Result (metabolite formation)” value ([6]; NADPH only (2 mM)) is reported as “minimal sulfation and glucuronidation” and the “Cofactor selection Result (metabolite formation)” value ([6]; No co-factors) is reported as “No metabolism”.
